Data: patent US20030083381A1, “Hair growth or hair formation controlling agents” (priority 2000, published 2003)
Where two headings read alike, the source gives them in different places. One block for each compound: values may come before it.

Experiments:
[1] = molecular target: T1, human PGE2 receptor subtype EP4 (Homo sapiens, UniProt P35408); test: Receptor binding experiment using PGE2 receptor subtype-expressing cells (3H-PGE2 displacement, membrane fractions); conditions: human PGE2 receptor subtypes EP2, EP3, EP4
T1 construct: expressed in transfected cells; host or cells: COS-7 cells, transient expression; membrane specimens
Protocol: Receptor Binding Experiment Using PGE2 Receptor Subtype-expressing Cells
The compound of the Formula (I) described above was tested for its selective binding activity to EP4 receptor by using PGE2 receptor subtype-expressing cells.
According to the reported method (Breyer,R. M. et al., J. Biol. Chem. 269,6163-6169(1994)), cloned human PGE2 receptor subtypes (EP3 and EP4) were transiently expressed by COS-7 cells. EP2 was stably expressed by CHO cells. These cells were prepared into membrane specimens. Each of the prepared membrane fractions (10 μg/tube) was incubated with a reaction solution containing ^3H—PGE2 at 30° C. for 1 hour. The reaction was terminated by iced buffer (10 mM MES(pH 6.0), 10 mM MgCl2, 1 mM EDTA), and the resultant was subjected to filtration by means of suction under reduced pressure to trap the bound ^3H-PGE2 on a glass filter (GF/C), followed by measurement of the radioactivity with a liquid scintillation counter.
The Kd value was determined from Scatchard plot according to the conventional method. Non-specific binding was determined in terms of the amount of bound radioactivity in the presence of an excess amount (5 μM) of non-labeled PGE2. […]
The dissociation constant Ki (nM) of Compound 1 was calculated according to the following equation: […]

[2] = tested on: epilated rabbit models; test: Hair-growth/generation test in epilated rabbits, subcutaneous, once a day from 2nd to 20th day; type: in vivo; conditions: for Length of New Hair (mm) / Rate of Hair-generated Area (%): mean ± standard error
Protocol: (§1) Hair-Growing or Hair-Generating Action
(§2) The test was carried out as follows. The hair on the back of each rabbit was removed with an electric clipper and evacream was applied for a short time to the back so as to epilate the back. After wiping the epilated region with water, test compound was subcutaneously administered to the back at a dose of 0.25 ml/kg (dissolved in 0.9% sodium chloride solution) once a day from the second day to 20th day after epilation. The state of generation of hair was observed and the length of the hair was measured.

[3] = molecular target: EP4 Receptor (Oryctolagus cuniculus, UniProt Q28691); test: Magnus experiment using rabbit saphenous vein (relaxation of 40 mM KCl contraction); type: cell-based
Protocol: Magnus Experiment Using Rabbit Saphenous Vein
Investigation of agonistic activity to EP4 was carried out by an improved method of the method of Lydford et al. (S. J. Lydford et al., Br. J. Pharmacol. 117, 13-20 (1996)) using rabbit saphenous veins. That is, each rabbit was deeply anesthetized by administering pentobarbital (50 mg/kg) to auricular vein, and then sacrificed by bleeding by cutting carotid artery. Saphenous vein was carefully but quickly removed and transferred into Krebs solution (NaCl 118.1 mM, KCl 5.31 mM, MgSO4 1.01 mM, CaCl2 3.52 mM, NaH2PO4 1.09 mM, NaHCO3 25.0 mM, glucose 9.99 mM, pH 7.4) which was preliminarily saturated with 95% O2+5% CO2 mixed gas. The connective tissue and the fatty tissue of each saphenous vein were isolated using a scissors for ophthalmology to prepare a ring preparation with a width of about 4 mm. This ring preparation was mounted on a hook for blood vessels, and then suspended in a Magnus tube filled with Krebs solution aerated with 95% O2+5% CO2 mixed gas and kept at 37° C. The isometric tension of each blood vessel was recorded on a recorder through an isometric transducer. To each blood vessel, a base tension of 1.0 g was applied and the blood vessel tissue was stabilized for about 30 minutes until the baseline became stabilized. After the baseline became stable, the blood vessel was contracted with 40 mM KCl, and the shrinkage and washing were repeated until the contraction became stable. After the contraction with KCl became stable, a thromboxane antagonist S-145 (1000 nM) was applied previously and then cumulative application experiments of Compounds 1 to 7 were carried out. More specifically, the reactivity to PGE2 which was a positive control drug was measured, and after washing, the action of each compound was studied. The effectiveness of each drug was expressed in terms of the concentration (EC50) at which the rate of relaxation of the test drug to the contraction by 40 mM KCl was 50%. EC50 value was calculated by plotting logarithm of the concentration of each drug along the abscissa and plotting the rate of relaxation with respect to the contraction by 40 mM KCl along the ordinate, and by determining the concentration at which the height of contraction was 50% based on the linear area of the concentration-reaction curve in each experiment. [drawing 39]

[4] = tested on: epilated rabbit models; test: Hair-growth/generation test in young epilated rabbits (8 weeks old), subcutaneous, once a day from 2nd to 7th day; type: in vivo, New Zealand White rabbits; conditions: young rabbits 8 weeks old
Protocol: as §1
as §2, with “removed” for “removed with an electric clipper”, “ml/kg” for “ml/kg (dissolved in 0.9% sodium chloride solution)”, “7th” for “20th”, “The” for “The state of generation of hair was observed and the”

[5] = relaxation of contraction by 40 mM KCl, thromboxane antagonist S-145 (1000 nM) present, read-out: EC50 (nM), agonistic activity to EP4 receptor in rabbit saphenous vein relaxation reaction

Sequence of EP4 Receptor (Q28691 whole entry): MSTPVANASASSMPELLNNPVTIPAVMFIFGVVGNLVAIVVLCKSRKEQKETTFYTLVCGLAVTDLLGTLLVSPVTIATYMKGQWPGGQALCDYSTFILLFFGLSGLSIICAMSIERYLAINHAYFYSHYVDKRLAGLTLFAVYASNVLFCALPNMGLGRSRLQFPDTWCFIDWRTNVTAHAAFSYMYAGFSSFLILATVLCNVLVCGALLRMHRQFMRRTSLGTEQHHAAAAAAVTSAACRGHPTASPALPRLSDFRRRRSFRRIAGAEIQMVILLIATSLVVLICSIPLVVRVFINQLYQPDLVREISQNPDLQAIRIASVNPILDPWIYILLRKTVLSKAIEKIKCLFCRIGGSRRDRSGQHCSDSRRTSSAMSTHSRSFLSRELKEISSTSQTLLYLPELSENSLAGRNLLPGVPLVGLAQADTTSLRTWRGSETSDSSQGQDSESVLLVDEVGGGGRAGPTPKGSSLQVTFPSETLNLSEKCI
T1 sequence (P35408 whole entry): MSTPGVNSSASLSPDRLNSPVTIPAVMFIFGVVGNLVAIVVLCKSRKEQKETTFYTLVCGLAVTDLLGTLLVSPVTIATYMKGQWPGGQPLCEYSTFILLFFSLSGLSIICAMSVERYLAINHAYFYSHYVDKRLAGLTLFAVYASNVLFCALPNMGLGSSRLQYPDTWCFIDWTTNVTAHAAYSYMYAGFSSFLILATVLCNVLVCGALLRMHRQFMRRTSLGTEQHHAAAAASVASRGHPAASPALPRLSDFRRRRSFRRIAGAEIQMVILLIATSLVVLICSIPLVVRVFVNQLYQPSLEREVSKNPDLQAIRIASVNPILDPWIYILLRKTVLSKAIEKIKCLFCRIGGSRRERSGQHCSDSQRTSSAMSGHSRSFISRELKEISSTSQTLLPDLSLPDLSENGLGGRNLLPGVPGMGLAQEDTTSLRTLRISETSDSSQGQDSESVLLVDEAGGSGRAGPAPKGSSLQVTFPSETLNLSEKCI

SMILES: O=C(O)CCc1cccc2c1O[C@H]1C[C@@H](O)[C@H](/C=C/[C@@H](O)CC3CCCCC3)[C@@H]21 [Compound 1]
selectivity to EP4 receptor subtype (binding abilities to other receptor subtypes are low) [1]: high selectivity
Rate of Rabbits with 50% or More Hair-Generated Area ([2]; 0.03 mg/kg s.c., 20th day): 1/4
Length of New Hair (mm) ([2]; 0.03 mg/kg s.c., 20th day): 6.0 ± 0.6 mm
Rate of Hair-generated Area (%) ([2]; 0.03 mg/kg s.c., 20th day): 15.8 ± 13.2%
Rate of Hair-generated Area (%) ([2]; 0.1 mg/kg s.c., 20th day): 48.8 ± 13.6%
Length of New Hair (mm) ([2]; 0.1 mg/kg s.c., 20th day, p < 0.05 vs. control): 7.3 ± 0.5 mm
length of the new hair (in words) ([2]; epilated rabbits, s.c. once a day): increased
EC50 [3]: 6 nM

EC50 [3, 5]: 3 nM
SMILES: OC(C=CC1C(O)CC2Oc3c(CCc4nnn[nH]4)cccc3C21)CC1CCCCC1 (stereo not shown) [Compound 2]
Length of New Hair (mm) ([4]; 0.03 mg/kg s.c., 7th day, mean ± standard error, p < 0.05 vs. control): 11.7 ± 0.5 mm
length of the new hair (in words) ([4]; s.c. once a day): increased

SMILES: O=C(O)C=Cc1cccc2c1OC1CC(O)C(C=CC(O)CC3CCCCC3)C21 (stereo not shown) [Compound 3]
EC50 [3]: 6 nM

SMILES: CC(C)(Cc1ccccc1)C(O)C=CC1C(O)CC2Oc3c(CCC(=O)O)cccc3C21 (stereo not shown) [Compound 4]
EC50 [3]: 7 nM

EC50 [3, 5]: 26 nM
SMILES: CC(C)(C(O)C=CC1C(O)CC2Oc3c(OCC(=O)O)cccc3C21)C1CCCCC1 (stereo not shown) [Compound 5]

EC50 [3, 5]: 33 nM
SMILES: O=C(O)CSc1cccc2c1OC1CC(O)C(C=CC(O)CC3CCCCC3)C21 (stereo not shown) [Compound 6]

SMILES: O=C(O)CCc1cccc2c1OC1CC(O)C(C=CC(O)C(F)(F)C3CCCCC3)C21 (stereo not shown) [Compound 7]
EC50 [3]: 2 nM
